From patent publication US20210130780A1, “METHODS OF GENERATING ENUCLEATED ERYTHROID CELLS USING MYO-INOSITOL” (Rubius Therapeutics, Inc., priority 2019, published 2021)

System: Human CD34+ hematopoietic stem cells (HSCs) / erythroid progenitor cell cultures
Experiment: Effect of myo-inositol on erythroid cell growth and enucleation (three-stage culture, maturation phase)
Conditions: third culture medium (maturation phase, 24 well plate) supplemented with an additional 1 g/L myo-inositol vs not supplemented control (basal IMDM 0.0072 g/L), FACS-based cell counting
Method: The effect of myo-inositol on erythroid progenitor cell cultures was examined. Human CD34^+ hematopoietic stem cells (HSCs) were cultured in a three-stage process to generate enucleated erythroid cells. In the first stage, the CD34+ HSCs were expanded in a T-flask in a first culture medium containing IMDM supplemented recombinant human insulin, recombinant human transferrin, recombinant human SCF, recombinant IL-3, recombinant Flt-3 ligand, and recombinant human IL-3. Subsequently, cells were transduced with a lentiviral vector encoding phenylalanine ammonia lyase. After transduction, cells were cultured in a 50 L bioreactor culture vessel containing a second culture medium containing IMDM, supplemented with recombinant human erythropoietin, recombinant human SCF, recombinant human IL3, recombinant human insulin, dexamethasone, and recombinant human transferrin. For the third stage of the process (maturation phase), an aliquot of cells were seeded into 24 well plate containing a third culture medium containing IMDM supplemented with recombinant human EPO, recombinant human SCF, recombinant human insulin, recombinant transferrin, human AB serum, and human plasma. […] Periodic sampling and cell counting was performed during the third stage using a fluorescence-activated cell sorting-based cell counter.

O[C@H]1[C@H](O)[C@@H](O)[C@H](O)[C@@H](O)[C@H]1O [myo-inositol]
total cell density of erythroid cells (FIG. 1): significantly increase | enucleated erythroid cell density (FIG. 2): significantly increase
